Results taken from patent EP1247803A2, “Indolinone compounds suitable for modulation of protein kinases” (Sugen, Inc., priority 1996, dated 1998).

What was measured:
EGFR = biological target: T1, EGFR (Homo sapiens, UniProt P00533); assay: EGFR ELISA assay (in vitro kinase activity, EGFR captured from A431 cell lysate); assay type: biochemical; design: concentration or dose not given beside the values
T1 construct: Add 7 ug A431 cell lysate per well (EGFR source); endogenous in cells; host or cells: A431
Procedure, shortened: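 Receptor autophosphorylation was read by ELISA: anti-phosphotyrosine serum and an HRP-linked secondary with ABTS substrate, absorbance at 410 nm (reference 630 nm). The reaction ran 5 min with 3 µM ATP and 5 mM MnCl2 and was quenched by 20 mM EDTA. Compounds were first incubated 30 min with antibody-captured EGFR from A431 cell lysate.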

MET = MET biochemical kinase assay; design: species or system human; concentration or dose not given beside the values
Procedure, shortened: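 Immunocaptured MET autophosphorylation, read colorimetrically (TMB) via HRP anti-phosphotyrosine antibody. Kinase reaction initiated with buffer containing ATP and divalent metals after compound addition to plate-bound receptor from lysates.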

T1 sequence (P00533 25-1210): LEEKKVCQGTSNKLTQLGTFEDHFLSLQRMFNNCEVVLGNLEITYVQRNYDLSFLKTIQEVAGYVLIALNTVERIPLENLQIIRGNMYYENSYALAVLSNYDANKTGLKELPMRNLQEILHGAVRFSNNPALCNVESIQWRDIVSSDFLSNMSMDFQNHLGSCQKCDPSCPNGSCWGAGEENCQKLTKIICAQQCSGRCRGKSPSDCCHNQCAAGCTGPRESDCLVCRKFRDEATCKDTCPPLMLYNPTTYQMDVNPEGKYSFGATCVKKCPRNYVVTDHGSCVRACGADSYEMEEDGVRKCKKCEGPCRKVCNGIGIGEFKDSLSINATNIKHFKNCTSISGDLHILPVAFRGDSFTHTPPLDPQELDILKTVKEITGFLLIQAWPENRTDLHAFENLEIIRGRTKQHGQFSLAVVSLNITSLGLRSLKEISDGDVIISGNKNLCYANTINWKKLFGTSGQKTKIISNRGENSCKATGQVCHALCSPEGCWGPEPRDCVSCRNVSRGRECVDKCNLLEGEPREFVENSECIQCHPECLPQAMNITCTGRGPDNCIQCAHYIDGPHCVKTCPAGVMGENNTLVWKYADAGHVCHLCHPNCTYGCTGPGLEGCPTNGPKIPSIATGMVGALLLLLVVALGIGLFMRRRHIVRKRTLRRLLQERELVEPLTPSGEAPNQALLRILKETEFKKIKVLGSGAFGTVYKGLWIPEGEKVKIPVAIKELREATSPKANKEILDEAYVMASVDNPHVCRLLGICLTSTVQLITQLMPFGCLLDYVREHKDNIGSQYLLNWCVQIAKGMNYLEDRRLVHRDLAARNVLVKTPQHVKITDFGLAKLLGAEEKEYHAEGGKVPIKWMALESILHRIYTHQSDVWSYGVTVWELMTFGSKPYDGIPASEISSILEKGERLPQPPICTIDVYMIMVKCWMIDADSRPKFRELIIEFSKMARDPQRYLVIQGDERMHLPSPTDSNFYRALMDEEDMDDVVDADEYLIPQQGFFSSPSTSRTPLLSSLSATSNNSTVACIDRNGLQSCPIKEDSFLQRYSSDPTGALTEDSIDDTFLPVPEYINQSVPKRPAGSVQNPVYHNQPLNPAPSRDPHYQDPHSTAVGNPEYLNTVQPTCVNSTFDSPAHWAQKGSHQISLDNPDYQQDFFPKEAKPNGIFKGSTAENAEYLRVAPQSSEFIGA

CNS(=O)(=O)c1ccc2c(c1)C(=Cc1[nH]c(C)c(Br)c1Br)C(=O)N2 [10717/D11]
Biochem EGFR %Inhibition (EGFR): 59.1% | Met Kinase % Inhibition (MET): 55.3%

CCOc1ccccc1C=C1C(=O)Nc2ccc(S(=O)(=O)Nc3ccc(C(F)(F)F)cc3)cc21 [10717/E02]
Biochem EGFR %Inhibition (EGFR): 17.2% | Met Kinase % Inhibition (MET): 24.0%

O=C1Nc2ccc(S(=O)(=O)Nc3ccc(C(F)(F)F)cc3)cc2C1=Cc1cccs1 [10717/E03]
Biochem EGFR %Inhibition (EGFR): 11.7% | Met Kinase % Inhibition (MET): 52.2%

Cn1cccc1C=C1C(=O)Nc2ccc(S(=O)(=O)Nc3ccc(C(F)(F)F)cc3)cc21 [10717/E04]
Biochem EGFR %Inhibition (EGFR): -28.3% | Met Kinase % Inhibition (MET): 29.4%

O=C1Nc2ccc(S(=O)(=O)Nc3ccc(C(F)(F)F)cc3)cc2C1=Cc1ccc(F)cc1 [10717/E05]
Biochem EGFR %Inhibition (EGFR): 22.4% | Met Kinase % Inhibition (MET): 39.1%

O=C1Nc2ccc(S(=O)(=O)Nc3ccc(C(F)(F)F)cc3)cc2C1=Cc1c[nH]c2ccccc12 [10717/E06]
Biochem EGFR %Inhibition (EGFR): -26.1% | Met Kinase % Inhibition (MET): 24.8%

Cc1ccc(C=C2C(=O)Nc3ccc(S(=O)(=O)Nc4ccc(C(F)(F)F)cc4)cc32)s1 [10717/E07]
Biochem EGFR %Inhibition (EGFR): -7.8% | Met Kinase % Inhibition (MET): 41.0%

O=C1Nc2ccc(S(=O)(=O)Nc3ccc(C(F)(F)F)cc3)cc2C1=Cc1ccc(Br)cc1 [10717/E08]
Biochem EGFR %Inhibition (EGFR): 28.2% | Met Kinase % Inhibition (MET): 51.7%

CC(C)(C)c1cc(C=C2C(=O)Nc3ccc(CCCl)cc32)cc([N+](=O)[O-])c1O [10722/G02]
Biochem EGFR %Inhibition (EGFR): 27.3% | Met Kinase % Inhibition (MET): 43.0%

O=C1Nc2ccc(CCCl)cc2C1=Cc1c(O)cc(O)cc1O [10722/G03]
Biochem EGFR %Inhibition (EGFR): 4.1% | Met Kinase % Inhibition (MET): 52.2%

O=C1Nc2ccc(CCCl)cc2C1=Cc1ccc([N+](=O)[O-])s1 [10722/G04]
Biochem EGFR %Inhibition (EGFR): -13.3% | Met Kinase % Inhibition (MET): 63.2%

O=C1Nc2ccc(CCCl)cc2C1=Cc1ccc(C(=O)O)cc1 [10722/G05]
Biochem EGFR %Inhibition (EGFR): -9.0% | Met Kinase % Inhibition (MET): 9.7%

O=C1Nc2ccc(CCCl)cc2C1=Cc1ccc(F)cc1F [10722/G06]
Biochem EGFR %Inhibition (EGFR): -5.2% | Met Kinase % Inhibition (MET): 12.2%

Cc1cc(C=C2C(=O)Nc3ccc(CCCl)cc32)cc(C)c1O [10722/G07]
Biochem EGFR %Inhibition (EGFR): -32.5% | Met Kinase % Inhibition (MET): 41.2%

CC(C)(C)c1cc(C=C2C(=O)Nc3ccc(CCCl)cc32)cc(Cl)c1O [10722/G08]
Biochem EGFR %Inhibition (EGFR): -8.5% | Met Kinase % Inhibition (MET): 66.1%

O=C1Nc2ccc(CCCl)cc2C1=Cc1csc([N+](=O)[O-])c1 [10722/G09]
Biochem EGFR %Inhibition (EGFR): -5.9% | Met Kinase % Inhibition (MET): 51.0%

CCCCN(CCCC)c1ccc(C=C2C(=O)Nc3ccc(CCCl)cc32)cc1 [10722/G10]
Biochem EGFR %Inhibition (EGFR): 3.3% | Met Kinase % Inhibition (MET): 27.0%

O=C1Nc2ccc(CCCl)cc2C1=Cc1ccc(C(F)(F)F)cc1 [10722/G11]
Biochem EGFR %Inhibition (EGFR): -39.4% | Met Kinase % Inhibition (MET): 35.3%

O=C1Nc2c(Br)cc(Br)cc2C1=Cc1ccc(O)c(O)c1O [10723/A02]
Biochem EGFR %Inhibition (EGFR): 97.8% | Met Kinase % Inhibition (MET): 100.8%

COc1cccc(C=C2C(=O)Nc3c(Br)cc(Br)cc32)c1O [10723/A03]
Biochem EGFR %Inhibition (EGFR): 38.5% | Met Kinase % Inhibition (MET): 76.5%

O=C1Nc2c(Br)cc(Br)cc2C1=Cc1cc(O)c(O)c(Br)c1 [10723/A04]
Biochem EGFR %Inhibition (EGFR): 30.8% | Met Kinase % Inhibition (MET): 97.9%

CC(=O)Oc1ccc(C=C2C(=O)Nc3c(Br)cc(Br)cc32)cc1OC(C)=O [10723/A05]
Biochem EGFR %Inhibition (EGFR): 26.4% | Met Kinase % Inhibition (MET): 75.7%

Cc1cc(C=C2C(=O)Nc3c(Br)cc(Br)cc32)ccc1O [10723/A06]
Biochem EGFR %Inhibition (EGFR): 20.1% | Met Kinase % Inhibition (MET): 79.1%

O=C1Nc2c(Br)cc(Br)cc2C1=Cc1ccccc1Br [10723/A07]
Biochem EGFR %Inhibition (EGFR): 3.9% | Met Kinase % Inhibition (MET): 63.2%

O=C1Nc2c(Br)cc(Br)cc2C1=Cc1ccc(O)cc1O [10723/A08]
Biochem EGFR %Inhibition (EGFR): -2.1% | Met Kinase % Inhibition (MET): 77.3%

COc1ccc(C=C2C(=O)Nc3c(Br)cc(Br)cc32)c(O)c1 [10723/A09]
Biochem EGFR %Inhibition (EGFR): -4.5% | Met Kinase % Inhibition (MET): 85.9%

O=C1Nc2c(Br)cc(Br)cc2C1=Cc1cccc(Br)c1 [10723/A10]
Biochem EGFR %Inhibition (EGFR): -24.8% | Met Kinase % Inhibition (MET): 62.1%

CC(C)(C)c1cc(C=C2C(=O)Nc3c(Br)cc(Br)cc32)c(O)c(C(C)(C)C)c1 [10723/A11]
Biochem EGFR %Inhibition (EGFR): -4.0% | Met Kinase % Inhibition (MET): 60.0%

O=C1Nc2ccc(I)cc2C1=Cc1ccc(O)c(O)c1O [10723/B02]
Biochem EGFR %Inhibition (EGFR): 91.0% | Met Kinase % Inhibition (MET): 100.3%

COc1cccc(C=C2C(=O)Nc3ccc(I)cc32)c1O [10723/B03]
Biochem EGFR %Inhibition (EGFR): -5.0% | Met Kinase % Inhibition (MET): 82.5%

O=C1Nc2ccc(I)cc2C1=Cc1cc(O)c(O)c(Br)c1 [10723/B04]
Biochem EGFR %Inhibition (EGFR): 5.1% | Met Kinase % Inhibition (MET): 90.6%

CC(=O)Oc1ccc(C=C2C(=O)Nc3ccc(I)cc32)cc1OC(C)=O [10723/B05]
Biochem EGFR %Inhibition (EGFR): 36.4% | Met Kinase % Inhibition (MET): 85.1%

Cc1cc(C=C2C(=O)Nc3ccc(I)cc32)ccc1O [10723/B06]
Biochem EGFR %Inhibition (EGFR): 11.9% | Met Kinase % Inhibition (MET): 90.6%

O=C1Nc2ccc(I)cc2C1=Cc1ccccc1Br [10723/B07]
Biochem EGFR %Inhibition (EGFR): 28.8% | Met Kinase % Inhibition (MET): 86.7%

O=C1Nc2ccc(I)cc2C1=Cc1ccc(O)cc1O [10723/B08]
Biochem EGFR %Inhibition (EGFR): -0.4% | Met Kinase % Inhibition (MET): 82.8%

COc1ccc(C=C2C(=O)Nc3ccc(I)cc32)c(O)c1 [10723/B09]
Biochem EGFR %Inhibition (EGFR): -12.0% | Met Kinase % Inhibition (MET): 57.7%

O=C1Nc2ccc(I)cc2C1=Cc1cccc(Br)c1 [10723/B10]
Biochem EGFR %Inhibition (EGFR): 1.8% | Met Kinase % Inhibition (MET): 88.5%

CC(C)(C)c1cc(C=C2C(=O)Nc3ccc(I)cc32)c(O)c(C(C)(C)C)c1 [10723/B11]
Biochem EGFR %Inhibition (EGFR): -26.0% | Met Kinase % Inhibition (MET): 62.6%

Cc1c(Br)ccc2c1C(=Cc1ccc(O)c(O)c1O)C(=O)N2 [10723/C02]
Biochem EGFR %Inhibition (EGFR): 73.6% | Met Kinase % Inhibition (MET): 100.6%

COc1cccc(C=C2C(=O)Nc3ccc(Br)c(C)c32)c1O [10723/C03]
Biochem EGFR %Inhibition (EGFR): 5.9% | Met Kinase % Inhibition (MET): 88.8%

Cc1c(Br)ccc2c1C(=Cc1cc(O)c(O)c(Br)c1)C(=O)N2 [10723/C04]
Biochem EGFR %Inhibition (EGFR): 23.5% | Met Kinase % Inhibition (MET): 91.9%

CC(=O)Oc1ccc(C=C2C(=O)Nc3ccc(Br)c(C)c32)cc1OC(C)=O [10723/C05]
Biochem EGFR %Inhibition (EGFR): 35.2% | Met Kinase % Inhibition (MET): 73.1%

Cc1cc(C=C2C(=O)Nc3ccc(Br)c(C)c32)ccc1O [10723/C06]
Biochem EGFR %Inhibition (EGFR): -4.5% | Met Kinase % Inhibition (MET): 63.4%

Cc1c(Br)ccc2c1C(=Cc1ccccc1Br)C(=O)N2 [10723/C07]
Biochem EGFR %Inhibition (EGFR): -4.0% | Met Kinase % Inhibition (MET): 44.3%

Cc1c(Br)ccc2c1C(=Cc1ccc(O)cc1O)C(=O)N2 [10723/C08]
Biochem EGFR %Inhibition (EGFR): 45.0% | Met Kinase % Inhibition (MET): 83.0%

COc1ccc(C=C2C(=O)Nc3ccc(Br)c(C)c32)c(O)c1 [10723/C09]
Biochem EGFR %Inhibition (EGFR): 62.7% | Met Kinase % Inhibition (MET): 84.6%

Cc1c(Br)ccc2c1C(=Cc1cccc(Br)c1)C(=O)N2 [10723/C10]
Biochem EGFR %Inhibition (EGFR): -7.2% | Met Kinase % Inhibition (MET): 43.8%

Cc1c(Br)ccc2c1C(=Cc1cc(C(C)(C)C)cc(C(C)(C)C)c1O)C(=O)N2 [10723/C11]
Biochem EGFR %Inhibition (EGFR): -1.1% | Met Kinase % Inhibition (MET): 47.0%

CNS(=O)(=O)c1ccc2c(c1)C(=Cc1ccc(O)c(O)c1O)C(=O)N2 [10723/D02]
Biochem EGFR %Inhibition (EGFR): 63.2% | Met Kinase % Inhibition (MET): 93.0%

CNS(=O)(=O)c1ccc2c(c1)C(=Cc1cccc(OC)c1O)C(=O)N2 [10723/D03]
Biochem EGFR %Inhibition (EGFR): 33.5% | Met Kinase % Inhibition (MET): 69.4%

CNS(=O)(=O)c1ccc2c(c1)C(=Cc1cc(O)c(O)c(Br)c1)C(=O)N2 [10723/D04]
Biochem EGFR %Inhibition (EGFR): 45.1% | Met Kinase % Inhibition (MET): 97.7%

CNS(=O)(=O)c1ccc2c(c1)C(=Cc1ccc(OC(C)=O)c(OC(C)=O)c1)C(=O)N2 [10723/D05]
Biochem EGFR %Inhibition (EGFR): 3.7% | Met Kinase % Inhibition (MET): 54.5%
